Experimental data taken from patent US20050113292A1 (priority 2003, published 2005).
pIC50: −log10 of the molar value.

Columns and labels:
[1] = test system: HIV-1 mediated cell-cell fusion (R8 virus); details: mediated cell-cell fusion (R8 virus)
T-tropic (R8) HIV-1 = details: T-tropic (R8)
M-tropic (BAL) HIV-1 = details: M-tropic (BAL)

With `CC(C)C[C@H](NC(=O)[C@H](CO)NC(=O)[C@H](C)NC(=O)[C@H](Cc1c[nH]c2ccccc12)NC(=O)[C@H](CCCCN)NC(=O)[C@H](CC(=O)O)NC(=O)[C@H](CC(C)C)NC(=O)[C@H](CCC(=O)O)NC(=O)[C@H](CC(C)C)NC(=O)[C@@H]1CSC(C(=O)NCCCC[C@H](NC(=O)CCNC(=O)C2N[C@H](C(=O)N[C@@H](CC(C)C)C(=O)N[C@@H](CCC(=O)O)C(=O)N[C@@H](CC(C)C)C(=O)N[C@@H](CC(=O)O)C(=O)N[C@@H](CCCCN)C(=O)N[C@@H](Cc3c[nH]c4ccccc34)C(=O)N[C@@H](C)C(=O)N[C@@H](CO)C(=O)N[C@@H](CC(C)C)C(=O)N[C@@H](Cc3c[nH]c4ccccc34)C(=O)N[C@@H](CC(N)=O)C(=O)N[C@@H](Cc3c[nH]c4ccccc34)C(=O)N[C@@H](Cc3ccccc3)C(=O)O)CS2)C(=O)N[C@@H](CO)C(=O)N[C@@H](CO)C(=O)N[C@@H](C)C(N)=O)N1)C(=O)N[C@@H](Cc1c[nH]c2ccccc12)C(=O)N[C@@H](CC(N)=O)C(=O)N[C@@H](Cc1c[nH]c2ccccc12)C(=O)N[C@@H](Cc1ccccc1)C(=O)O` (stereo partly drawn) [Compound 2α-C13] the pIC50 [1] was 6.54, the pIC50 (T-tropic (R8) HIV-1) was 6.51 and the pIC50 (M-tropic (BAL) HIV-1) was 6.37.
`CC(C)C[C@H](NC(=O)[C@H](CO)NC(=O)[C@H](C)NC(=O)[C@H](Cc1c[nH]c2ccccc12)NC(=O)[C@H](CCCCN)NC(=O)[C@H](CC(=O)O)NC(=O)[C@H](CC(C)C)NC(=O)[C@H](CCC(=O)O)NC(=O)[C@H](CC(C)C)NC(=O)[C@H](CC(C)C)NC(=O)[C@H](CCC(=O)O)NC(=O)[C@H](CCC(N)=O)NC(=O)[C@H](CCC(=O)O)NC(=O)[C@H](CC(N)=O)NC(=O)[C@H](CCCCN)NC(=O)[C@H](CCC(=O)O)NC(=O)[C@H](CCC(N)=O)NC(=O)[C@H](CCC(N)=O)NC(=O)[C@H](CC(N)=O)NC(=O)[C@H](CCC(N)=O)NC(=O)[C@@H]1CSC(C(=O)NCCCC[C@H](NC(=O)CCNC(=O)C2N[C@H](C(=O)N[C@@H](CCC(N)=O)C(=O)N[C@@H](CC(N)=O)C(=O)N[C@@H](CCC(N)=O)C(=O)N[C@@H](CCC(N)=O)C(=O)N[C@@H](CCC(=O)O)C(=O)N[C@@H](CCCCN)C(=O)N[C@@H](CC(N)=O)C(=O)N[C@@H](CCC(=O)O)C(=O)N[C@@H](CCC(N)=O)C(=O)N[C@@H](CCC(=O)O)C(=O)N[C@@H](CC(C)C)C(=O)N[C@@H](CC(C)C)C(=O)N[C@@H](CCC(=O)O)C(=O)N[C@@H](CC(C)C)C(=O)N[C@@H](CC(=O)O)C(=O)N[C@@H](CCCCN)C(=O)N[C@@H](Cc3c[nH]c4ccccc34)C(=O)N[C@@H](C)C(=O)N[C@@H](CO)C(=O)N[C@@H](CC(C)C)C(=O)N[C@@H](Cc3c[nH]c4ccccc34)C(=O)N[C@@H](CC(N)=O)C(=O)N[C@@H](Cc3c[nH]c4ccccc34)C(=O)N[C@@H](Cc3ccccc3)C(=O)O)CS2)C(=O)N[C@@H](CO)C(=O)N[C@@H](CO)C(=O)N[C@@H](C)C(N)=O)N1)C(=O)N[C@@H](Cc1c[nH]c2ccccc12)C(=O)N[C@@H](CC(N)=O)C(=O)N[C@@H](Cc1c[nH]c2ccccc12)C(=O)N[C@@H](Cc1ccccc1)C(=O)O` (stereo partly drawn) [Compound 2α-C24] was tested, and the pIC50 [1] was 7.42, the pIC50 (T-tropic (R8) HIV-1) was 7.10 and the pIC50 (M-tropic (BAL) HIV-1) was 7.17.
